This data set can be described thus: Scanning electron microscope inspection of encapsulated granules. The format is physicochemical. The following applies: SEM. As for the experimental part: NaNO2 granules (food grade E250, BASF) approximately 0.2-1.0 mm and zein (USP30/NF25, Rebain International Ltd) were used as supplied. NaNO2 granules were dried in a commercial oven for 12 hours at 60° C. to remove any residual moisture. NaNO2 granules (500 g) were coated using a pan coating process; zein (10%) was dissolved in a mixture of water (10%) and ethanol (80%). For coatings containing plasticizer, zein (9.9%) was dissolved in a mixture of water (10%) and ethanol (80%) and either glycerol, PVP or PEG 400 were added at 0.1% to make a mixture containing zein and one of the potential plasticizers. To coat the NaNO2, 500 g of granules were placed in a spherical pan, the pan was rotated at 20 revolutions per minute, the liquid encapsulant solution was sprayed onto the granules at one litre per hour while the whole was warmed to 40° C. by warm predried air directed onto the granule bed to progressively evaporate the solvents. Once all coating material was applied the granules continued to be rotated to ensure drying.
NaNO2 coated in each of the four different solutions outlined above as well as uncoated NaNO2 granules were assessed visually using a scanning electron microscope (SEM) (Philips XL30S FEG, Netherlands). Samples were sputter coated with gold for 2 min (Quorum Technologies Polaron SC 7640 sputter coater, England) and viewed at an accelerating voltage of 5 kV. […]

SMILES strings stand for the structures.

With `O=N[O-].[Na+]` [Uncoated NaNO2 granules, sodium nitrite], the aggregation of granules result (54x/55x and 250x magnification) is “strong tendency to aggregate”. Further, the “surface of granule / coat (cracks)” value (1000x magnification) is recorded as “covered in surface fissures”.

The values are drawn from US10624338B2, “Nitrite microencapsulation, and uses of microencapsulated nitrite in the manufacture of pest baits” (priority 2016, dated 2020).
